From article PMC10025185, “A continuous in silico learning strategy to identify safety liabilities in compounds used in the leather and textile industry” (Archives of Toxicology, 2023)
Read-outs that look alike come from different tables or passages of the source.

Tests used:
[1] = tested on: zebrafish embryos
From the text: In REACH, most of the mammalian tests for chemical safety assessment are related to reproductive toxicity (ECHA [2020]; Rovida and Hartung [2009]; Sellick [2011]) and consider complex molecular and cellular mechanisms determined in long-term experiments with very low throughput. To avoid the use of animals and to assay reproductive toxicity in a relevant 'non-animal' model adhering to the 3Rs rule, we used zebrafish embryos up to 120 hpf. Up to this developmental stage, the embryos are not considered animals according to European legislation (Sellick [2011]). When they reach the stage of independent feeding, zebrafish embryos become subject to regulations for animal experimentation. We performed a set of previously described experiments to cover a wide range of potential reprotoxic effects, including terato-carcinogenesis, developmental neurotoxicity, and endocrine disruption.
Zebrafish embryos obtained and maintained as described previously for toxicity determination were used to determine (I) terato-carcinogenesis assayed as previously informed (Selderslaghs et al. [2009], [2012]) with modifications. In brief, embryos were incubated for 0 hpf up to 120 hpf in the presence and absence of tested compounds. Each condition was assayed in triplicate with 12 embryos per condition per replicate. The appearance of selected characteristics and malformations with respect to normal development were quantified for the eyes, otoliths, heart, circulation, hatching, skeletal deformities, and body position. For each concentration tested, we assessed the mortality and the presence of malformations at 24, 48, 72, 96, and 120 hpf using a light microscope. When possible, the lethal effects (LC50) and terato-carcinogenic effects (EC50) were determined using the ToxRat software. Based on these values, a teratogenic index (TI) was calculated as LC50/EC50. Based on previous studies, we considered a compound to be a teratogen when TI > 2 at 120 hpf. When no TI could be calculated due to no malformations induction to a degree extensive enough to calculate the EC50 in the presence of high toxicity, the compound was considered a non-teratogen. (II) Neurotoxicity was assayed by evaluating the locomotor activity in embryos exposed to the tested compounds from 0 to 120 hpf using Zebrabox and Zebralab (ViewPoint). We tested three concentrations (24 embryos per concentration) below the NOEC to avoid readily toxic concentrations. After incubation with tested compounds for 120 hs in 96-well plates, the activity of larvae in response to transitions from dark to light was evaluated. The protocol involved an initial 10 min acclimation period inside the Zebrabox, followed by three cycles of light–dark of 10 min each. After the end of each cycle, the integrated activity of each embryo was registered. Statistical analysis was done using ANOVA, followed by the Tukey post hoc test. Differences were considered significant when p < 0.05. Dead embryos were not considered in the analysis. (III) The endocrine-disrupting effect in zebrafish embryos was assayed by real-time PCR as previously reported (Jarque et al. [2019]) with modifications. In brief, 0 hpf embryos (12 embryos per condition in triplicate) were incubated with selected compounds for up to 120 hpf. After incubation, treated (embryos incubated at the concentration right below the NOEC) and control embryos were collected in RNA later and kept at − 20°C until use. RNA was extracted from the samples using the RNeasy Mini Kit (QIAGEN) and was followed by cDNA synthesis using random primers and the AffinityScript Multi Temperature cDNA Synthesis Kit (Agilent Technologies).

[2] = CMR experimental result (carcinogenicity, micronucleus and reprotoxicity combined, logical OR)
From the text: For comparison with the prediction results, the results of the carcinogenicity, micronucleus, and reprotoxicity assays were combined using a logical OR operator. Therefore, we consider that compounds with a positive result for any of these three experimental assays is a CMR positive.

[3] = tested on: CHO-K1 (Chinese hamster ovary cells); format: cell-based; details: 6 h with or without S9, 24 h without S9
Experimental: The in vitro micronucleus test is a genotoxicity test for the detection of micronuclei in the cytoplasm of interphase cells. Tests were conducted in the presence of the cytokinesis blocker cytochalasin B with three different treatment schedules: (i) short treatment for 6 h; (ii) short treatment for 6 h in the presence of an exogenous source of metabolic activation (cofactor supplemented S9 liver fraction); and (iii) extended treatment for 24 h.
CHO-K1 (Chinese hamster ovary cells, ATCC Item Number CCL-61) were cultured in DMEM F-12 containing 10% foetal bovine serum and 100 units/ml penicillin/100 μg/ml streptomycin (all from Sigma-Aldrich, St Louis, USA). Cells were seeded at 3000 cells/well in a collagen-coated 96-well plate in 100 μl. After 24 h, cells were incubated with CellTracker Orange CMTMR cellular dye solution (Invitrogen, Waltham, USA) for 1 h. Cells were then treated with compounds for 6 h, with or without S9 metabolic activation, or 24 h without S9 metabolic activation. […] After the 6-h compound treatment, cells were incubated with cytochalasin B (Alfa Aesar, Kandel, Germany) for 24 h. In case of 24-h treatment, cells were incubated with compounds in the presence of cytochalasin B and harvested after treatment. Benzo(a)pyrene, mitomycin C, and colchicine were used as positive controls for 6 h, with or without metabolic activation or 24 h treatments, respectively. […] After several washes with BupH-modified DPBS, cells were analysed in an Operetta High-Content Imaging System (PerkinElmer, Waltham, USA). […] Statistical significance was determined with the ANOVA test with significance level adjusted to p < 0.05.

[4] = 0 to 120 hpf, teratogen when TI > 2
[5] = positive in any of the three experimental assays

Molecule | Reprotoxicity (R) Teratogen [1, 4] | Reprotoxicity (R) Experimental conclusion ([1]; positive in any of the three assays) | CMR experimental result [2, 5] | Micronucleus assay (M) [3] | Reprotoxicity (R) Teratogen ([1]; in vivo) | Reprotoxicity (R) Experimental conclusion ([1]; in vivo) | CMR experimental result [2]
Reaction mass of cis-4-(isopropyl) cyclohexanemethanol and trans-4-(isopropyl) cyclohexanemethanol | No | No | YES | Negative | – | – | –
CCCCC(CC)CN (stereo not shown) [2-Ethylhexylamine] | – | – | – | Negative | No | – | –
CCN(CC)c1ccc(N=Nc2c(Cl)cc([N+](=O)[O-])cc2[N+](=O)[O-])c(NC(C)=O)c1 [N-[2-[(2-chloro-4,6-dinitrophenyl)azo]-5-(diethylamino)phenyl]acetamide] | No | – | YES | Negative | – | – | –
O=C(OCCc1ccccc1)c1ccccc1 [Phenethyl benzoate] | – | – | – | Negative | No | No | –
CNC(=O)c1cc(Cl)ccn1.Cl [4-Chloro-N-methylpyridine-2-carboxamide hydrochloride (1:1)] | – | – | – | Negative | No | No | NO
